From ChEMBL document CHEMBL5260813, “An overview on the recent developments of 1,2,4-triazine derivatives as anticancer compounds” (Eur J Med Chem, 2017) come the findings set out here.

Values after ≈ are worked out from the molar mass of the structure shown.

For one data set, the system named is KB. Put plainly: Antiproliferative activity against human KB cells assessed as inhibition of cell growth under hypoxia condition. Format: functional, cell-based.
Data set [1] has as its system A549. Put plainly: Antiproliferative activity against human A549 cells assessed as inhibition of cell growth under hypoxia condition. Type of data set: functional, cell-based.
Data set [2] concerns A549. The experiment in a line: Antiproliferative activity against human A549 cells assessed as inhibition of cell growth incubated for 72 hrs by MTT assay. Format: functional, cell-based. Particulars: A549, 72 h. Background: Formazan colour is commonly taken as a measure of viable cells.
A further data set has as its system SMMC-7721. Put plainly: Antiproliferative activity against human SMMC-7721 cells assessed as inhibition of cell growth incubated for 72 hrs by MTT assay. Type of data set: functional, cell-based. Particulars: SMMC-7721, 72 h.
In data set [3] the test system is K562. Put plainly: Induction of apoptosis in human K562 cells assessed as increase in apoptotic cells under normoxia condition relative to control. Format: functional.
Data set [4] deals with K562. The experiment in a line: Induction of apoptosis in human K562 cells assessed as increase in apoptotic cells under hypoxia condition relative to control. Type of data set: functional.
In data set [5] the target is T1, Tyrosine-protein kinase SYK (Homo sapiens, UniProt P43405). The experiment in a line: Inhibition of human SYK using 5-Fluo-Ahx-GAPDYENLQELNKK-Amid as substrate in presence of ATP by microfluidic mobility shift assay.
The next data set relates to TMD8. The experiment in a line: Antiproliferative activity against human TMD8 cells assessed as inhibition of cell growth incubated for 3 days by WST-1 assay. Type of data set: functional, cell-based. Particulars: TMD8, 72 h.
Another data set deals with OCI-Ly10. Put plainly: Antiproliferative activity against human OCI-Ly10 cells assessed as inhibition of cell growth incubated for 3 days by WST-1 assay. Type of data set: functional, cell-based. Particulars: OCI-Ly10, 72 h.
Data set [6] can be described thus: Antiproliferative activity against human HBL1 cells assessed as inhibition of cell growth incubated for 3 days by WST-1 assay. Type of data set: functional, cell-based. Particulars: HBL1, 72 h.
Data set [7] deals with T1, Tyrosine-protein kinase SYK. Put plainly: Inhibition of SYK in human Ramos cells assessed as reduction in anti IgM-induced phosphorylation of BLNK by flow cytometry assay. Format: cell-based. (In general: Flow cytometry measures light scatter and fluorescence of single cells or particles in a stream.)
Data set [8] has as its system MCF7. Put plainly: Antiproliferative activity against human MCF7 cells assessed as inhibition of cell growth by MTT assay. Type of data set: functional, cell-based.
The test system of a further data set is HepG2. Put plainly: Antiproliferative activity against human HepG2 cells assessed as cell growth inhibition by MTT assay. Format: functional, cell-based.
The subject of another data set is HCT-116. The experiment in a line: Antiproliferative activity against human HCT-116 cells assessed as inhibition of cell growth by MTT assay. Type of data set: functional, cell-based.
Another data set relates to MDA-MB-468. The experiment in a line: Antiproliferative activity against human MDA-MB-468 cells assessed as reduction in cell viability. Format: functional.
Data set [9] has as its target Glutaminase kidney isoform, mitochondrial (Homo sapiens, UniProt O94925). The experiment in a line: Inhibition of GLS in human PC-3 cells using glutamine as substrate by amplex red staining-based horseradish peroxidase/glutamate oxidase coupled assay. Format: cell-based.
The test system of data set [10] is MCF7. Put plainly: Antiproliferative activity against human MCF7 cells assessed as inhibition of cell growth at 100 uM relative to control. Format: functional.
Data set [11] relates to SF-268. Put plainly: Antiproliferative activity against human SF-268 cells assessed as inhibition of cell growth at 100 uM relative to control. Format: functional.
Another data set relates to OVCAR-4. Put plainly: Antiproliferative activity against human OVCAR-4 cells assessed as cell growth inhibition. Format: functional, cell-based.
A further data set deals with CAKI-1. Put plainly: Antiproliferative activity against human CAKI-1 cells assessed as inhibition of cell growth. Format: functional, cell-based.
For a further data set, the system named is PC-3. Put plainly: Antiproliferative activity against human PC-3 cells assessed as inhibition of cell growth measured after 48 hrs by MTT assay. Type of data set: functional, cell-based. Particulars: PC-3, 48 h.
The subject of data set [12] is MCF7. The experiment in a line: Antiproliferative activity against human MCF7 cells assessed as inhibition of cell growth measured after 48 hrs by MTT assay. Type of data set: functional, cell-based. Particulars: MCF7, 48 h.
Data set [13] concerns NCI-H460. The experiment in a line: Antiproliferative activity against human NCI-H460 cells assessed as inhibition of cell growth measured after 48 hrs by MTT assay. Format: functional, cell-based. Particulars: NCI-H460, 48 h.
In data set [14] the target is Fibroblast growth factor receptor (Homo sapiens, UniProt P22607+P11362+P22455+P21802). Put plainly: Inhibition of FGFR (unknown origin). Format: protein assay.
Data set [15] concerns MCF7. Put plainly: Antiproliferative activity against human MCF7 cells assessed as inhibition of cell growth. Format: functional, cell-based.
For data set [16], the system named is NCI-H460. Put plainly: Antiproliferative activity against human NCI-H460 cells assessed as inhibition of cell growth. Type of data set: functional, cell-based.
For data set [17], the system named is SF-268. Put plainly: Antiproliferative activity against human SF-268 cells assessed as inhibition of cell growth. Format: functional, cell-based.
For data set [18], the target named is T2, Interleukin-1 receptor-associated kinase 4 (Homo sapiens, UniProt Q9NWZ3).
T2 sequence (Q9NWZ3 whole entry): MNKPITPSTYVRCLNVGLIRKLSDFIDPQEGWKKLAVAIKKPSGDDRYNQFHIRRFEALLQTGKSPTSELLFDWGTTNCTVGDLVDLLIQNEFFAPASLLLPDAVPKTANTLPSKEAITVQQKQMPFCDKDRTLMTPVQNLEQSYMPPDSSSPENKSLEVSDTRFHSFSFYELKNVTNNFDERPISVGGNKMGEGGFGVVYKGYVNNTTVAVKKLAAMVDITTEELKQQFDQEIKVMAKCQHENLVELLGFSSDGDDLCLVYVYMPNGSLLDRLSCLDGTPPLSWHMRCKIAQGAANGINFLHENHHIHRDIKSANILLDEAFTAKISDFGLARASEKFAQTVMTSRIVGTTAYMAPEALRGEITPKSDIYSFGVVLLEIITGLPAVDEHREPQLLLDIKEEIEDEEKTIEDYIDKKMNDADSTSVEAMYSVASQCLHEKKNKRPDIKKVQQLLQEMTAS
The experiment in a line: Inhibition of human GST-tagged IRAK4 incubated for 30 mins in presence of ATP by fluorescent polarization assay.

Data set [19] deals with Cyclin-dependent kinase 2/cyclin E1 (Homo sapiens, UniProt P24941). The experiment in a line: Inhibition of CDK2/cyclin E1 (unknown origin) expressed in Sf9 cells.
Data set [20] can be described thus: Cytotoxicity against human CEM cells assessed as inhibition of cell growth incubated for 72 hrs by MTT assay. Format: toxicity, cell-based. Particulars: CEM (CCRF-CEM) cells, pooled result: one value given for 5 cell lines, strains, targets or settings.
Data set [21] relates to MCF7. Put plainly: Cytotoxicity against human MCF7 cells assessed as inhibition of cell growth incubated for 72 hrs by MTT assay. Type of data set: functional, cell-based. The following applies: MCF7, 72 h.
The subject of data set [22] is Panel NCI-60 (60 carcinoma cell lines). Put plainly: Antiproliferative activity against human Panel NCI-60 (60 carcinoma cell lines) cells assessed as inhibition of cell growth. Type of data set: functional, cell-based.

Glutaminase kidney isoform, mitochondrial, sequence (O94925 whole entry, canonical isoform): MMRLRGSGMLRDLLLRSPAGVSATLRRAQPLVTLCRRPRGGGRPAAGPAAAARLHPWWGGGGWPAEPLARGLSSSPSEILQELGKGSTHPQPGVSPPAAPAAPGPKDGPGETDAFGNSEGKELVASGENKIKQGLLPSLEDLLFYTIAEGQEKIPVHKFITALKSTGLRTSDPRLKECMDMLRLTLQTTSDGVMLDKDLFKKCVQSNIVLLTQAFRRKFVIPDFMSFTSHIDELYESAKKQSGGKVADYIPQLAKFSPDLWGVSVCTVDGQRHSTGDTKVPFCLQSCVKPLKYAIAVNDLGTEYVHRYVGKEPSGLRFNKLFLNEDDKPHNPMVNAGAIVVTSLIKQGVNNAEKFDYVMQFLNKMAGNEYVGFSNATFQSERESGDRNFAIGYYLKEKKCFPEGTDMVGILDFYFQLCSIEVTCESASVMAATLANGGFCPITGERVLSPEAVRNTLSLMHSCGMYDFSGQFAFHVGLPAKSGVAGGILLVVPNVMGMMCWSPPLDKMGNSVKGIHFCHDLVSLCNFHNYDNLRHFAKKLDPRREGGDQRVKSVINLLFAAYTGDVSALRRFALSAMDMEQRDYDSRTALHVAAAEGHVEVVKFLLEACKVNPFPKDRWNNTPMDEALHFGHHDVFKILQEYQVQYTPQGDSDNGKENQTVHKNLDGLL

As a reminder, the IC50 is the concentration that inhibits the measured activity by half. As for `COCNc1n[n+]([O-])c2ccccc2[n+]1[O-]`, the half-maximal inhibitory concentration (IC50) with KB and with A549 [1] was 2.7 µM throughout.

Regarding `CCOCNc1n[n+]([O-])c2ccccc2[n+]1[O-]`, the IC50 with A549 [2] stood at 3.12 µM; in the data set on SMMC-7721 it was 3.12 µM; in the data set with KB, 4.09 µM. The Activity is recorded as 9.5% with K562 [3] and 32.11% in the data set on K562 [4].

Take `NC(=O)c1nnc(N[C@@H]2CCCC[C@@H]2N)nc1Nc1cccc2cc[nH]c12`: the IC50 in data set [5] was 0.0008 µM; in the data set with TMD8, 0.281 µM; in the data set on OCI-Ly10 it was 0.025 µM; in [6] it was 0.105 µM; in [7], 0.014 µM.

On to `O=c1[nH]n2c(=O)c(/C=C/c3cccs3)nnc2s1`, for which the IC50 with MCF7 [8], with HepG2 and with HCT-116 was 8.34 µg/mL (≈ 30 µM) in each case.

Turning to `O=C(O)CCc1nn2c(=O)c(/C=C/c3cccs3)nnc2s1`, the IC50 with MCF7 [8] is 11.7 µg/mL (≈ 34.8 µM); in the data set on HepG2, 12.1 µg/mL (≈ 36.3 µM); with HCT-116, 8.34 µg/mL (≈ 24.9 µM).

One may read the GI50 as the concentration that inhibits growth by half. Regarding `CC(C)c1ccc(-c2nn3nnc4ccccc4c3nc2=O)cc1`, in the data set on MDA-MB-468, the GI50 turned out to be 0.41 µM.

`COC(C(=O)Cc1cnc(NC2CCN(c3cncnn3)C2)s1)c1cccc(OC(F)(F)F)c1` (stereo not drawn) displayed an IC50 in data set [9] of 0.043 µM.

By inhibition is commonly meant how much of the control response was suppressed. With `CC(=O)OC[C@H]1O[C@@H](n2nc(Cc3ccccc3)c(=S)n(N)c2=S)[C@H](OC(C)=O)[C@@H](OC(C)=O)[C@H]1OC(C)=O`, the inhibition at 100 µM stood at 15% in the data set on MCF7 [10] and 38% with SF-268 [11].

Regarding `Cc1nn(C)c2nn3nnnc3nc12`, the IC50 in the data set with OVCAR-4 worked out at 1.12 µM; in the data set with CAKI-1, 1.12 µM; with PC-3, 0.4 µM; with MCF7 [12], 0.4 µM; in the data set with NCI-H460 [13], 0.4 µM.

Compound `CCn1c(=O)c(-c2cc(OC)cc(OC)c2)cc2nnc(Nc3ccncc3)nc21` had an IC50 in data set [14] of 0.35 µM.

For the compound `Cc1ccc(C2=NN=C(/C(C#N)=N/Nc3sc4c(c3C#N)CCCC4)N(Nc3ccccc3)C2)cc1`, the IC50 was determined as 12.4 µM in the data set on MCF7 [15], 6.8 µM with NCI-H460 [16] and 8.3 µM with SF-268 [17].

For `Cn1cc(NC(=O)c2ccc3cnc(NC4CCCCC4N)nn23)c(C(N)=O)n1` (stereo not drawn), the 50% inhibitory concentration (IC50) in data set [18] was determined as 0.0007 µM.

For the compound `Oc1cccc(-n2nc(-c3cc(O)c(O)c(O)c3)c3nc(-c4ccc(Cl)cc4)nnc32)c1`, the 50% inhibitory concentration (IC50) in data set [19] is 17.3 µM; in the data set with MCF7 [21] it was 1.9 µM. The 50% inhibitory concentration (IC50) at 72 h in data set [20] was 1.9 µM.

With `Cc1c(C#N)c2nnc(C(N)=O)c(N)n2c1-c1ccccc1`, the IC50 with OVCAR-4 worked out at 2.77 µM; in [22], 3.34 µM.

Consider `O=C(O)c1ccccc1-c1nn2c(=O)c(/C=C/c3cccs3)nnc2s1`, for which the IC50 with MCF7 [8], in the data set on HepG2 and with HCT-116 was 8.34 µg/mL (≈ 21.8 µM) each time.

`Oc1cc(-c2nn(-c3cc(O)c(O)c(O)c3)c3nnc(-c4ccc(Cl)cc4)nc23)cc(O)c1O`: the figures for the IC50 (in [19]; in the data set on MCF7 [21]) were 11 µM and 0.77 µM, respectively. The IC50 at 72 h in data set [20] was 0.77 µM.
